Data: US6825217B2, “Carbinols for the treatment of neuropathic dysfunction” (Endo Pharmaceuticals, Inc., priority 2001, dated 2004)

How the values were obtained:
[1] = target: T1, mu receptor sites in the brain (Homo sapiens, UniProt P35372); experiment: Activity at mu receptor sites in the brain; type: binding
T1 construct: mu, kappa, delta or sigma receptor sites in the brain; from tissue

[2] = target: T2, kappa receptor sites in the brain (Homo sapiens, UniProt P41145); experiment: Activity at kappa receptor sites in the brain; type: binding
T2 construct: mu, kappa, delta or sigma receptor sites in the brain; from tissue
T2 sequence (P41145 whole entry): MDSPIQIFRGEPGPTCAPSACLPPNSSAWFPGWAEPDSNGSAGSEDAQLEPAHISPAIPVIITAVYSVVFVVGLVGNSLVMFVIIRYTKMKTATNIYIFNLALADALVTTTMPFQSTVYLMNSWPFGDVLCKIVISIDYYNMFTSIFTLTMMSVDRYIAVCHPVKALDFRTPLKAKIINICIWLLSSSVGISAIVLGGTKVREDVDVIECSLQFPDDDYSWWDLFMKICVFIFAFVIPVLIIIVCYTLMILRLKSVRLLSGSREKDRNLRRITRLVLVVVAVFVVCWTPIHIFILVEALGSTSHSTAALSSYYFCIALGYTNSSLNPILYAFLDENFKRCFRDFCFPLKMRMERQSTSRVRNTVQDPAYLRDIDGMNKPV

[3] = Studies in animals: addictive and respiratory depressant properties; type: in vivo; details: versus narcotic-related analgesics
[4] = Mouse antiphenylquinone writhing (PQW) test; type: in vivo
Procedure: (§1) The anti-phenylquinone writhing (PQW) test modified from the methods of Siegmund et al. (Proc. Soc. Exp. Biol. Med. 95: 729-731, 1957) and Blumberg et al. (Proc. Exp. Biol. Med. 118: 763-767, 1965) was used to assess the relief from the simulated symptoms of neuropathic pain in mice. Male CF1 mice (Charles River Breeding Laboratories, Wilmington, Mass.), fasted for 16-22 hours and weighing 18-23 g, were injected with randomized and coded doses of test compounds, then challenged with 1.25 mg/kg i.p. phenyl-p-benzoquinone (phenylquinone) 5 minutes prior to the specified observation time. The phenylquinone solution (0.1 mg/ml in 5% aqueous ethanol) was prepared daily and stored in foil-wrapped amber bottles to limit degradation. Mice were observed 10 minutes for the presence or absence of the characteristic abdominal constriction and stretching response beginning 30 minutes after injection of the test compound. Activity was calculated as the percentage of mice failing to respond to the phenylquinone challenge dose. […] Median effective doses (ED50's) and 95% confidence limits were determined numerically by the methods of Thompson (Bacteriological Rev. 11: 115-145, 1947), and Litchfield and Wilcoxon (J. Pharmacol. Exp. Ther. 96: 99-113, 1949).

Rat PQW = type: in vivo
Procedure: as §1

Safety pharmacology, dog = type: in vivo
Safety pharmacology, rat = type: in vivo

T1 sequence (P35372 whole entry): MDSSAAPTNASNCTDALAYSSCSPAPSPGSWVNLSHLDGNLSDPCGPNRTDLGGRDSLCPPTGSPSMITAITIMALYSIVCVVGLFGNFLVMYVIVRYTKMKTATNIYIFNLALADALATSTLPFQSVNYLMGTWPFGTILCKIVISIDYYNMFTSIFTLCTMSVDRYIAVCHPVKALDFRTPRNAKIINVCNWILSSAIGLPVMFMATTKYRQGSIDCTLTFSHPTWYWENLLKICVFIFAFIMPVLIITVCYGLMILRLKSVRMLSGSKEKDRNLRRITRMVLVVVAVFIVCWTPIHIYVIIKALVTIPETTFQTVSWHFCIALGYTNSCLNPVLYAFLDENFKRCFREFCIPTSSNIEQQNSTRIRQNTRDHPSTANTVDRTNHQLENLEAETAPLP

Compound: CN1CCC(c2ccsc2)(C(C)(C)O)CC1 [Compound A, 4-(3-thienyl)-α,α,1-trimethyl-4-piperidinemethanol]
- activity at mu receptor sites [1]: does not show significant activity
- activity at kappa receptor sites [2]: does not show significant activity
- addictive and respiratory depressant properties [3]: lacks the addictive and respiratory depressant properties
- ED50 ([4]; Mus musculus): 18 mg/kg
- activity in mouse PQW model ([4]; mouse, unmarked entry of animal model table): showed activity
- ED50 (Rat PQW; Rattus norvegicus): 7.9 mg/kg
- activity in rat PQW model (Rat PQW; rat, unmarked entry of animal model table): showed activity
- MTD (Safety pharmacology, dog; in vivo): 20 mg/kg
- hypotension/decreased cardiac contractility, anemia, multiple of effective dose (Safety pharmacology, dog; iv-pentobarb): 10 X
- emesis/anorexia BW loss, multiple of effective dose (Safety pharmacology, dog; po): 1-10 X
- respiratory acidosis, multiple of effective dose (Safety pharmacology, dog; po): 10 X
- LD (Safety pharmacology, rat; po): LD = 400 mg/kg-po
- anorexia, multiple of effective dose (mg/kg) (Safety pharmacology, rat; po): 10,100,300 mg/kg
- physical dep (Safety pharmacology, rat; po): non-opioid
- respiratory acidosis, exophthalmia, multiple of effective dose (Safety pharmacology, rat; po): 1-50 X
- LD (Safety pharmacology, rat; sc): LD = 270 mg/kg-sc
